Results taken from patent US6737383B1, “Herbicidal oxadiazolidines” (priority 1999, dated 2004).

Assays:
[1] = system: bedstraw; experiment: Test B pre/postemergence bedstraw; type: in vivo, Galium aparine
Outline: (§1)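 Test chemicals in a non-phytotoxic solvent mixture with surfactant were sprayed preemergence onto planted seeds and postemergence onto plants 2 to 18 cm tall (1- to 4-leaf stage). After twelve to sixteen days in a greenhouse, injury was visually rated against untreated controls from 0 (no effect) to 10 (complete control).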

[2] = system: blackgrass; experiment: Test B pre/postemergence blackgrass; type: in vivo, Alopecurus myosuroides
Outline: as §1

[3] = system: surinam grass; experiment: Test B pre/postemergence surinam grass; type: in vivo, Brachiaria decumbens
Outline: as §1

[4] = system: cocklebur; experiment: Test B pre/postemergence cocklebur; type: in vivo, Xanthium strumarium; conditions: for Cocklebur plant response rating: Postemergence; for Plant response rating, Cocklebur: Preemergence
Outline: as §1

[5] = system: corn; experiment: Test B pre/postemergence corn; type: in vivo, Zea mays
Outline: as §1

[6] = system: crabgrass; experiment: Test B pre/postemergence crabgrass; type: in vivo, Digitaria sanguinalis
Outline: as §1

[7] = system: giant foxtail; experiment: Test B pre/postemergence giant foxtail; type: in vivo, Setaria faberii
Outline: as §1

[8] = system: morningglory; experiment: Test B pre/postemergence morningglory; type: in vivo, Ipomoea hederacea
Outline: as §1

[9] = system: pigweed; experiment: Test B pre/postemergence pigweed; type: in vivo, Amaranthus retroflexus
Outline: as §1

[10] = system: rape; experiment: Test B pre/postemergence rape; type: in vivo, Brassica napus
Outline: as §1

[11] = system: soybean; experiment: Test B pre/postemergence soybean; type: in vivo, Glycine max
Outline: as §1

[12] = system: sugar beet; experiment: Test B pre/postemergence sugar beet; type: in vivo, Beta vulgaris
Outline: as §1

[13] = system: velvetleaf; experiment: Test B pre/postemergence velvetleaf; type: in vivo, Abutilon theophrasti
Outline: as §1

[14] = system: wheat; experiment: Test B pre/postemergence wheat; type: in vivo, Triticum aestivum
Outline: as §1

[15] = system: wild oat; experiment: Test B pre/postemergence wild oat; type: in vivo, Avena fatua
Outline: as §1

[16] = system: purple nutsedge; experiment: Test B pre/postemergence purple nutsedge; type: in vivo, Cyperus rotundus
Outline: as §1

[17] = system: duck salad; experiment: Test B flood test duck salad; type: in vivo, Heteranthera limosa; conditions: Rate 125 g/ha; Postemergence section (flood test species); scale 0 to 10, 0 no effect, 10 complete control
Experimental: At the same time, these crop and weed species were also treated with postemergence applications of test chemicals formulated in the same manner. Plants ranged in height from 2 to 18 cm (1- to 4-leaf stage) for postemergence treatments. Plant species in the flood test consisted of rice (Oryza sativa), smallflower flatsedge (Cyperus difformis), duck salad (Heteranthera limosa) and bamyardgrass (Echinochloa crus-galli) grown to the 2-leaf stage for testing. Treated plants and controls were maintained in a greenhouse for twelve to sixteen days, after which all species were compared to controls and visually evaluated. Plant response ratings, summarized in Table B, are based on a scale of 0 to 10 where 0 is no effect and 10 is complete control. A dash (−) response means no test result.

[18] = Postemergence, Rate 62 g/ha, scale 0 to 10, 0 is no effect, 10 is complete control
[19] = Postemergence, Rate 250 g/ha, scale 0 to 10, 0 no effect, 10 complete control
[20] = Preemergence, Rate 62 g/ha, scale 0 to 10, 0 is no effect, 10 is complete control
[21] = Preemergence, Rate 125 g/ha, scale 0 to 10 (0 no effect, 10 complete control)
[22] = Preemergence, Rate 250 g/ha, scale of 0 to 10 where 0 is no effect and 10 is complete control
[23] = Preemergence, Rate 500 g/ha, scale 0 (no effect) to 10 (complete control)
[24] = Rate 125 g/ha, Postemergence, scale 0 to 10, 0 no effect, 10 complete control
[25] = Rate 500 g/ha, Postemergence, 0 to 10 scale (0 no effect, 10 complete control)
[26] = Rate 62 g/ha, scale 0 to 10, 0 is no effect, 10 is complete control

Cc1ccccc1-n1c(=O)on(C(=O)N(c2ccc(F)cc2)C2CC2)c1=O [Compound 37]
Bedstraw plant response rating [1, 18]: 0 | Bedstraw plant response rating [1, 19]: 0 | Plant response rating, Bedstraw [1, 20]: 0 | Plant response rating, Bedstraw [1, 21]: 0 | Plant response rating, Bedstraw [1, 22]: 0 | Bedstraw plant response rating [1, 23]: 0 | Bedstraw plant response rating [1, 24]: 0 | Bedstraw plant response rating [1, 25]: 0 | Blackgrass plant response rating [2, 18]: 0 | Blackgrass plant response rating [2, 19]: 0 | Plant response rating, Blackgrass [2, 20]: 0 | Plant response rating, Blackgrass [2, 21]: 0 | Plant response rating, Blackgrass [2, 22]: 0 | Blackgrass plant response rating [2, 23]: 0 | Blackgrass plant response rating [2, 24]: 0 | Blackgrass plant response rating [2, 25]: 0 | B. signalgrass plant response rating [3, 18]: 0 | B. signalgrass plant response rating [3, 19]: 0 | Plant response rating, B. signalgrass [3, 20]: 0 | Plant response rating, B. signalgrass [3, 21]: 0 | Plant response rating, B. signalgrass [3, 22]: 0 | B. signalgrass plant response rating [3, 23]: 0 | B. signalgrass plant response rating [3, 24]: 0 | B. signalgrass plant response rating [3, 25]: 0 | Cocklebur plant response rating [4, 26]: 0 | Cocklebur plant response rating ([4]; Rate 250 g/ha, scale 0 to 10, 0 no effect, 10 complete control): 0 | Plant response rating, Cocklebur [4, 26]: 0 | Plant response rating, Cocklebur ([4]; Rate 125 g/ha, scale 0 to 10 (0 no effect, 10 complete control)): 0 | Plant response rating, Cocklebur ([4]; Rate 250 g/ha, scale of 0 to 10 where 0 is no effect and 10 is complete control): 0 | Cocklebur plant response rating ([4]; Rate 125 g/ha, scale 0 to 10, 0 no effect, 10 complete control): 0 | Cocklebur plant response rating ([4]; Rate 500 g/ha, 0 to 10 scale (0 no effect, 10 complete control)): 1 | Corn plant response rating [5, 18]: 0 | Corn plant response rating [5, 19]: 0 | Plant response rating, Corn [5, 20]: 0 | Plant response rating, Corn [5, 21]: 0 | Plant response rating, Corn [5, 22]: 0 | Corn plant response rating [5, 23]: 0 | Corn plant response rating [5, 24]: 0 | Corn plant response rating [5, 25]: 0 | Crabgrass plant response rating [6, 18]: 0 | Crabgrass plant response rating [6, 19]: 0 | Plant response rating, Crabgrass [6, 20]: 0 | Plant response rating, Crabgrass [6, 21]: 0 | Plant response rating, Crabgrass [6, 22]: 3 | Crabgrass plant response rating [6, 23]: 5 | Crabgrass plant response rating [6, 24]: 0 | Crabgrass plant response rating [6, 25]: 3 | Giant foxtail plant response rating [7, 18]: 0 | Giant foxtail plant response rating [7, 19]: 0 | Plant response rating, Giant foxtail [7, 20]: 0 | Plant response rating, Giant foxtail [7, 21]: 0 | Plant response rating, Giant foxtail [7, 22]: 2 | Giant foxtail plant response rating [7, 23]: 3 | Giant foxtail plant response rating [7, 24]: 0 | Giant foxtail plant response rating [7, 25]: 0 | Morningglory plant response rating [8, 18]: 0 | Morningglory plant response rating [8, 19]: 0 | Plant response rating, Morningglory [8, 20]: 0 | Plant response rating, Morningglory [8, 21]: 0 | Plant response rating, Morningglory [8, 22]: 0 | Morningglory plant response rating [8, 23]: 0 | Morningglory plant response rating [8, 24]: 0 | Morningglory plant response rating [8, 25]: 1 | Redroot pigweed plant response rating [9, 18]: 0 | Redroot pigweed plant response rating [9, 19]: 0 | Plant response rating, Redroot pigweed [9, 20]: 0 | Plant response rating, Redroot pigweed [9, 21]: 0 | Plant response rating, Redroot pigweed [9, 22]: 0 | Redroot pigweed plant response rating [9, 23]: 0 | Redroot pigweed plant response rating [9, 24]: 0 | Redroot pigweed plant response rating [9, 25]: 0 | Rape plant response rating [10, 18]: 0 | Rape plant response rating [10, 19]: 0 | Plant response rating, Rape [10, 20]: 0 | Plant response rating, Rape [10, 21]: 0 | Plant response rating, Rape [10, 22]: 0 | Rape plant response rating [10, 23]: 0 | Rape plant response rating [10, 24]: 0 | Rape plant response rating [10, 25]: 0 | Soybean plant response rating [11, 18]: 0 | Soybean plant response rating [11, 19]: 0 | Plant response rating, Soybean [11, 20]: 0 | Plant response rating, Soybean [11, 21]: 0 | Plant response rating, Soybean [11, 22]: 0 | Soybean plant response rating [11, 23]: 0 | Soybean plant response rating [11, 24]: 0 | Sugarbeets plant response rating [12, 18]: 0 | Sugarbeets plant response rating [12, 19]: 0 | Plant response rating, Sugarbeets [12, 20]: 0 | Plant response rating, Sugarbeets [12, 21]: 0 | Plant response rating, Sugarbeets [12, 22]: 0 | Sugarbeets plant response rating [12, 23]: 0 | Sugarbeets plant response rating [12, 24]: 0 | Velvetleaf plant response rating [13, 18]: 0 | Velvetleaf plant response rating [13, 19]: 0 | Plant response rating, Velvetleaf [13, 20]: 0 | Plant response rating, Velvetleaf [13, 21]: 0 | Plant response rating, Velvetleaf [13, 22]: 0 | Velvetleaf plant response rating [13, 23]: 0 | Velvetleaf plant response rating [13, 24]: 0 | Wheat plant response rating [14, 18]: 0 | Wheat plant response rating [14, 19]: 0 | Plant response rating, Wheat [14, 20]: 0 | Plant response rating, Wheat [14, 21]: 0 | Plant response rating, Wheat [14, 22]: 0 | Wheat plant response rating [14, 23]: 0 | Wheat plant response rating [14, 24]: 0 | Wild oats plant response rating [15, 18]: 0 | Wild oats plant response rating [15, 19]: 0 | Plant response rating, Wild oats [15, 21]: 0 | Plant response rating, Wild oats [15, 22]: 0 | Wild oats plant response rating [15, 23]: 0 | Wild oats plant response rating [15, 24]: 0 | Nutsedge plant response rating [16, 18]: 0 | Nutsedge plant response rating [16, 19]: 0 | Plant response rating, Nutsedge [16, 20]: 0 | Plant response rating, Nutsedge [16, 21]: 0 | Plant response rating, Nutsedge [16, 22]: 0 | Nutsedge plant response rating [16, 23]: 0 | Nutsedge plant response rating [16, 24]: 0 | Ducksalad plant response rating [17]: 0
